Reference: PubChem BioAssay (NCI)
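1) Cells in 96-well plates. 2) Compound, 48 h, 5 concentrations. 3) Linear interpolation between surrounding doses. 4) Unreached endpoint = highest concentration. TGI: total growth inhibition.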

Assays:
Assay in all cases: DTP human tumour cell line panel, 48 h
DLD-1 colon = test system: DLD-1 colon
CCRF-CEM leukemia = test system: CCRF-CEM leukemia
SK-MEL-28 melanoma = test system: SK-MEL-28 melanoma
HOP-92 NSCLC = test system: HOP-92 NSCLC
A549 NSCLC = test system: A549 NSCLC
COLO 205 colon = test system: COLO 205 colon
UACC-62 melanoma = test system: UACC-62 melanoma
T-47D breast = test system: T-47D breast
NCI-H522 lung = test system: NCI-H522 lung
HT29 colon = test system: HT29 colon
SN12C renal = test system: SN12C renal
OVCAR-3 ovarian = test system: OVCAR-3 ovarian
HCC-2998 colon = test system: HCC-2998 colon
U251 CNS = test system: U251 CNS
A498 renal = test system: A498 renal
XF 498 CNS = test system: XF 498 CNS
SF-268 CNS = test system: SF-268 CNS
LXFL 529 NSCLC = test system: LXFL 529 NSCLC
HCT-15 colon = test system: HCT-15 colon
MDA-MB-435 = test system: MDA-MB-435
OVCAR-8 ovarian = test system: OVCAR-8 ovarian
PC-3 prostate = test system: PC-3 prostate
ACHN renal = test system: ACHN renal
SK-OV-3 ovarian = test system: SK-OV-3 ovarian
HL-60(TB) leukemia = test system: HL-60(TB) leukemia
IGROV1 ovarian = test system: IGROV1 ovarian
RXF 393 renal = test system: RXF 393 renal
DU-145 prostate = test system: DU-145 prostate
NCI/ADR-RES ovarian = test system: NCI/ADR-RES ovarian
SNB-78 CNS = test system: SNB-78 CNS
NCI-H226 lung = test system: NCI-H226 lung
KM20L2 colon = test system: KM20L2 colon
LOX IMVI melanoma = test system: LOX IMVI melanoma
MCF7 breast = test system: MCF7 breast
HS 578T breast = test system: HS 578T breast
KM12 colon = test system: KM12 colon
TK-10 renal = test system: TK-10 renal
SW-620 colon = test system: SW-620 colon
DMS 114 small cell lung = test system: DMS 114 small cell lung
OVCAR-5 ovarian = test system: OVCAR-5 ovarian
SF-295 CNS = test system: SF-295 CNS
UO-31 renal = test system: UO-31 renal
SK-MEL-5 melanoma = test system: SK-MEL-5 melanoma
MDA-N = test system: MDA-N
MOLT-4 leukemia = test system: MOLT-4 leukemia
NCI-H23 lung = test system: NCI-H23 lung
NCI-H460 lung = test system: NCI-H460 lung
SNB-19 CNS = test system: SNB-19 CNS
K-562 leukemia = test system: K-562 leukemia
DMS 273 small cell lung = test system: DMS 273 small cell lung
SK-MEL-2 melanoma = test system: SK-MEL-2 melanoma
EKVX NSCLC = test system: EKVX NSCLC
SF-539 CNS = test system: SF-539 CNS
UACC-257 melanoma = test system: UACC-257 melanoma
SR leukemia = test system: SR leukemia
M14 melanoma = test system: M14 melanoma
OVCAR-4 ovarian = test system: OVCAR-4 ovarian
BT-549 breast = test system: BT-549 breast
MALME-3M melanoma = test system: MALME-3M melanoma
MDA-MB-231 breast = test system: MDA-MB-231 breast
HOP-62 NSCLC = test system: HOP-62 NSCLC
HOP-18 NSCLC = test system: HOP-18 NSCLC
SNB-75 CNS = test system: SNB-75 CNS
786-0 renal = test system: 786-0 renal
M19-MEL melanoma = test system: M19-MEL melanoma
HCT-116 colon = test system: HCT-116 colon
RPMI-8226 leukemia = test system: RPMI-8226 leukemia
CAKI-1 renal = test system: CAKI-1 renal
RXF-631 renal = test system: RXF-631 renal

Molecule `O=c1cc(-c2ccccc2)oc2ccc(Cl)cc12` has a TGI (DLD-1 colon) greater than 100 µM, a TGI (CCRF-CEM leukemia) greater than 100 µM and a TGI (SK-MEL-28 melanoma) greater than 78.4 µM. It also gave a TGI (HOP-92 NSCLC) of 73.2 µM, a TGI (A549 NSCLC) greater than 100 µM and a TGI (COLO 205 colon) greater than 85.7 µM. It also gave a TGI (UACC-62 melanoma) greater than 79.4 µM, a TGI (T-47D breast) greater than 100 µM and a TGI (NCI-H522 lung) greater than 100 µM. For the same molecule, the TGI (HT29 colon) was greater than 100 µM, the TGI (SN12C renal) was greater than 100 µM and the TGI (OVCAR-3 ovarian) was greater than 100 µM. It also gave a TGI (HCC-2998 colon) greater than 100 µM, a TGI (U251 CNS) greater than 91.7 µM and a TGI (A498 renal) of 98 µM. It also gave a TGI (XF 498 CNS) greater than 90.5 µM, a TGI (SF-268 CNS) greater than 85.3 µM and a TGI (LXFL 529 NSCLC) greater than 100 µM. It also gave a TGI (HCT-15 colon) greater than 100 µM, a TGI (MDA-MB-435) greater than 60.1 µM and a TGI (OVCAR-8 ovarian) greater than 100 µM. For the same molecule, the TGI (PC-3 prostate) was greater than 80.3 µM, the TGI (ACHN renal) was greater than 90.6 µM and the TGI (SK-OV-3 ovarian) was greater than 100 µM. It also gave a TGI (HL-60(TB) leukemia) greater than 46.4 µM, a TGI (IGROV1 ovarian) greater than 100 µM and a TGI (RXF 393 renal) greater than 91.2 µM. It also gave a TGI (DU-145 prostate) greater than 100 µM, a TGI (NCI/ADR-RES ovarian) greater than 100 µM and a TGI (SNB-78 CNS) greater than 100 µM. For the same molecule, the TGI (NCI-H226 lung) was greater than 100 µM, the TGI (KM20L2 colon) was greater than 100 µM and the TGI (LOX IMVI melanoma) was greater than 80.1 µM. The TGI (MCF7 breast) was greater than 100 µM, the TGI (HS 578T breast) was greater than 91.8 µM and the TGI (KM12 colon) was greater than 80.6 µM. The TGI (TK-10 renal) was 92.7 µM, the TGI (SW-620 colon) was greater than 100 µM and the TGI (DMS 114 small cell lung) was greater than 100 µM. For the same molecule, the TGI (OVCAR-5 ovarian) was greater than 100 µM, the TGI (SF-295 CNS) was 99.1 µM and the TGI (UO-31 renal) was greater than 88.8 µM. It also gave a TGI (SK-MEL-5 melanoma) greater than 100 µM, a TGI (MDA-N) greater than 61.1 µM and a TGI (MOLT-4 leukemia) of 98.7 µM. The TGI (NCI-H23 lung) was greater than 100 µM, the TGI (NCI-H460 lung) was greater than 100 µM and the TGI (SNB-19 CNS) was greater than 81.7 µM. For the same molecule, the TGI (K-562 leukemia) was greater than 96.2 µM, the TGI (DMS 273 small cell lung) was greater than 100 µM and the TGI (SK-MEL-2 melanoma) was greater than 100 µM. The TGI (EKVX NSCLC) was greater than 97 µM, the TGI (SF-539 CNS) was greater than 97.4 µM and the TGI (UACC-257 melanoma) was greater than 74.6 µM. For the same molecule, the TGI (SR leukemia) was greater than 46.4 µM, the TGI (M14 melanoma) was greater than 100 µM and the TGI (OVCAR-4 ovarian) was greater than 96.3 µM. For the same molecule, the TGI (BT-549 breast) was greater than 100 µM, the TGI (MALME-3M melanoma) was greater than 82.4 µM and the TGI (MDA-MB-231 breast) was greater than 31.6 µM. For the same molecule, the TGI (HOP-62 NSCLC) was greater than 85.8 µM, the TGI (HOP-18 NSCLC) was greater than 100 µM and the TGI (SNB-75 CNS) was greater than 85.7 µM. For the same molecule, the TGI (786-0 renal) was greater than 87.8 µM, the TGI (M19-MEL melanoma) was greater than 100 µM and the TGI (HCT-116 colon) was greater than 100 µM. It also gave a TGI (RPMI-8226 leukemia) greater than 100 µM and a TGI (CAKI-1 renal) greater than 90.4 µM.
`CN1NC(c2ccc(Cl)cc2)=C(C#N)C(=O)CC1c1ccccc1` (stereo unspecified) was tested, and the TGI (DLD-1 colon) was greater than 100 µM, the TGI (SK-MEL-28 melanoma) was greater than 100 µM and the TGI (HOP-92 NSCLC) was greater than 100 µM. For the same molecule, the TGI (A549 NSCLC) was greater than 100 µM, the TGI (COLO 205 colon) was greater than 100 µM and the TGI (NCI-H522 lung) was greater than 100 µM. It also gave a TGI (HT29 colon) greater than 100 µM, a TGI (U251 CNS) greater than 100 µM and a TGI (A498 renal) greater than 100 µM. The TGI (RXF-631 renal) was greater than 100 µM, the TGI (SF-268 CNS) was greater than 100 µM and the TGI (LXFL 529 NSCLC) was greater than 100 µM. For the same molecule, the TGI (HCT-15 colon) was greater than 100 µM, the TGI (ACHN renal) was greater than 100 µM and the TGI (SK-OV-3 ovarian) was greater than 100 µM. For the same molecule, the TGI (HL-60(TB) leukemia) was greater than 100 µM, the TGI (RXF 393 renal) was greater than 100 µM and the TGI (KM20L2 colon) was greater than 100 µM. For the same molecule, the TGI (LOX IMVI melanoma) was greater than 100 µM, the TGI (KM12 colon) was greater than 100 µM and the TGI (TK-10 renal) was greater than 100 µM. For the same molecule, the TGI (SW-620 colon) was greater than 100 µM, the TGI (DMS 114 small cell lung) was greater than 100 µM and the TGI (OVCAR-5 ovarian) was greater than 100 µM. It also gave a TGI (SF-295 CNS) greater than 100 µM, a TGI (SK-MEL-5 melanoma) greater than 100 µM and a TGI (NCI-H23 lung) greater than 100 µM. For the same molecule, the TGI (NCI-H460 lung) was greater than 100 µM, the TGI (SNB-19 CNS) was greater than 100 µM and the TGI (DMS 273 small cell lung) was greater than 100 µM. For the same molecule, the TGI (SK-MEL-2 melanoma) was greater than 100 µM, the TGI (UACC-257 melanoma) was greater than 100 µM and the TGI (SR leukemia) was greater than 100 µM. It also gave a TGI (OVCAR-4 ovarian) greater than 100 µM, a TGI (HOP-18 NSCLC) greater than 100 µM and a TGI (SNB-75 CNS) greater than 100 µM. It also gave a TGI (786-0 renal) greater than 100 µM, a TGI (HCT-116 colon) greater than 100 µM and a TGI (RPMI-8226 leukemia) greater than 100 µM. For the same molecule, the TGI (CAKI-1 renal) was greater than 100 µM.
`CC(=O)CCC1(c2ccccc2)OC(=O)C(C#N)=C1c1ccccc1` (stereo unspecified) showed a TGI (DLD-1 colon) greater than 100 µM, a TGI (CCRF-CEM leukemia) greater than 100 µM and a TGI (SK-MEL-28 melanoma) greater than 100 µM. For the same molecule, the TGI (HOP-92 NSCLC) was greater than 100 µM, the TGI (A549 NSCLC) was greater than 100 µM and the TGI (COLO 205 colon) was greater than 100 µM. It also gave a TGI (UACC-62 melanoma) greater than 100 µM, a TGI (NCI-H522 lung) of 4.53 µM and a TGI (HT29 colon) greater than 100 µM. The TGI (SN12C renal) was greater than 100 µM, the TGI (OVCAR-3 ovarian) was greater than 100 µM and the TGI (HCC-2998 colon) was greater than 100 µM. The TGI (U251 CNS) was greater than 100 µM, the TGI (A498 renal) was greater than 100 µM and the TGI (RXF-631 renal) was greater than 100 µM. For the same molecule, the TGI (XF 498 CNS) was greater than 100 µM, the TGI (SF-268 CNS) was greater than 100 µM and the TGI (LXFL 529 NSCLC) was greater than 100 µM. The TGI (HCT-15 colon) was greater than 100 µM, the TGI (OVCAR-8 ovarian) was greater than 100 µM and the TGI (ACHN renal) was greater than 100 µM. For the same molecule, the TGI (SK-OV-3 ovarian) was greater than 100 µM, the TGI (IGROV1 ovarian) was greater than 100 µM and the TGI (SNB-78 CNS) was greater than 100 µM. For the same molecule, the TGI (KM20L2 colon) was greater than 100 µM, the TGI (LOX IMVI melanoma) was greater than 100 µM and the TGI (KM12 colon) was greater than 100 µM. It also gave a TGI (TK-10 renal) greater than 100 µM, a TGI (SW-620 colon) greater than 100 µM and a TGI (DMS 114 small cell lung) greater than 100 µM. The TGI (OVCAR-5 ovarian) was greater than 100 µM, the TGI (SF-295 CNS) was greater than 100 µM and the TGI (UO-31 renal) was greater than 100 µM. It also gave a TGI (SK-MEL-5 melanoma) greater than 100 µM, a TGI (MOLT-4 leukemia) greater than 100 µM and a TGI (NCI-H23 lung) greater than 100 µM. The TGI (NCI-H460 lung) was greater than 100 µM, the TGI (SNB-19 CNS) was greater than 100 µM and the TGI (K-562 leukemia) was greater than 100 µM. It also gave a TGI (DMS 273 small cell lung) greater than 100 µM, a TGI (SK-MEL-2 melanoma) greater than 100 µM and a TGI (EKVX NSCLC) greater than 100 µM. For the same molecule, the TGI (SF-539 CNS) was greater than 100 µM, the TGI (UACC-257 melanoma) was greater than 100 µM and the TGI (M14 melanoma) was greater than 100 µM. The TGI (OVCAR-4 ovarian) was greater than 100 µM, the TGI (MALME-3M melanoma) was greater than 100 µM and the TGI (HOP-62 NSCLC) was greater than 100 µM. It also gave a TGI (SNB-75 CNS) of 74.1 µM, a TGI (786-0 renal) greater than 100 µM and a TGI (M19-MEL melanoma) greater than 100 µM. The TGI (HCT-116 colon) was greater than 100 µM and the TGI (RPMI-8226 leukemia) was greater than 100 µM.
